Patent EP4745138A1, “THIO-GLUTARIMIDO ISOINDOLINONE DERIVATIVE, BIFUNCTIONAL PROTEIN DEGRADER CONTAINING SAME, AND USES THEREOF” (Gluetacs Therapeutics (Shanghai) Co., Ltd., priority 2023, dated 2025)
Read-outs that look alike come from different tables or passages of the source.

What was measured:
MV-4-11 = assay: Tumor cell proliferation inhibition (CellTiter-Meiluncell Luminescent Cell Viability Assay); type: cell-based; details: Homo sapiens, 96 hours; for inhibition at 0.01 µM: MV4-11, 10 nM, read-out: Inhibition Rate at 10 nM (%); for inhibition at 0.5 µM: MV4-11, 500 nM, read-out: Inhibition Rate at 500 nM (%)
Method: The tumor cells used herein were cultured in a cell culture medium listed in table 3 at 37°C in an incubator with 5% CO2. Prior to experimentation, all cell lines used were correctly identified by STR profiling, and tested negative for mycoplasma contamination using a mycoplasma detection kit through routine screenings. Table 3. Tumor cells and cell culture medium used in the present disclosure
The IC50 values of the compounds of the present disclosure (including the compounds in Table 1, Table 2, and Examples) were determined using the CellTiter-Meiluncell Luminescent Cell Viability Assay Kit from Dalian Meilun Biotech Co., Ltd. The detailed procedure is as follows: Tumor cells were seeded in 96-well cell culture plates at the densities specified in Table 4. On the following day, the test compounds of the present disclosure were subjected to serial dilution. […] Subsequently, 0.5 µL of the test compound dilution was transferred into the 96-well plate containing the cells, with each well containing 100 µL of cell culture medium. […] Into the 96-well plate, the diluted test compounds and corresponding detection reagents were added, resulting in final test compound concentrations of 500 nM and 10 nM, respectively. The experimental procedure is described below using the diluted 2 µM test compound as an example.
0.5 µL of the aforementioned diluted compound of the present disclosure (including the compounds in Table 1, Table 2, and Examples) was added to the seeded cells in 100 µL of medium, yielding a final test compound concentration of 10 nM. After the cells were treated with the compounds of the present disclosure for a specified period, the cell viability assay reagent was added to the culture medium according to the kit's instructions to determine cell viability. […] All controls were treated using the same procedure as the compounds of the present disclosure. […] Seeding protocol and treatment time for tumor cells

[1] = biological target: T1, human Cereblon WT GST-tagged protein (Homo sapiens, UniProt Q96SW2); assay: CRBN-binding affinity, HTRF (CEREBLON BINDING kit); details: for inhibition at 0.5 µM: read-out: Inhibition Rate at 0.5 µM (%); for inhibition at 2 µM: read-out: Inhibition Rate at 2 µM (%)
T1 construct: purchased CISBIO 64BDCRBNPEH
Source text: The CEREBLON BINDING kits (specification: 10,000 tests; product number: Catalog # 64BDCRBNPEH; CISBIO company) was used to determine the CRBN binding ability of the compounds to be tested through a HTRF method (homogeneous time-resolved fluorescence). The specific methods are as follows: • 1. […] Specifically, diluent #9 (1X) solution was used as the diluent, and multiple concentration gradients were set. […] Into the 96-well plate, the diluted test compounds and corresponding detection reagents were added, resulting in final test compound concentrations of 2 µM and 0.5 µM, respectively. […] Then, 2.5 µL of human Cereblon WT GST-tagged protein solution was added to each well. Finally, 5 µL of the thoroughly mixed Thalidomide-Re reagent and GST Eu antibody working solution were added to each of the aforementioned wells. […] The blank control wells were sequentially added with 2.5 µL of diluent #9 (1X) solution, 2.5 µL of PROTAC binding buffer, and 5 µL of thoroughly mixed Thalidomide-Re reagent and GST Eu antibody working solution. • 4.

[2] = Table I-8, SMARCA2/4 inhibitors

T1 sequence (Q96SW2 whole entry): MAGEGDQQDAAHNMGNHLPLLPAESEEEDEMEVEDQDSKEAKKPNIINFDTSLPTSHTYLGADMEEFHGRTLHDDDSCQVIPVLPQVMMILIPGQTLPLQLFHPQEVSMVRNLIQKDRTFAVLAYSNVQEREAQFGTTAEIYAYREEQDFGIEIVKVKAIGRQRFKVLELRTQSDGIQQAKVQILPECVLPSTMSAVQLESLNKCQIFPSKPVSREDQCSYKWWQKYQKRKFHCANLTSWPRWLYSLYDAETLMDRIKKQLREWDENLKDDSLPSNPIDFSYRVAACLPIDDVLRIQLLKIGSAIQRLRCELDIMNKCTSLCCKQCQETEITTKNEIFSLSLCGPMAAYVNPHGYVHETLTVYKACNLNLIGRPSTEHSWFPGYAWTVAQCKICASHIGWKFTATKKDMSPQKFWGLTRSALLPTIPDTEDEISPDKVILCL

Compound | inhibition at 0.5 µM [1] [%] | inhibition at 2 µM [1] [%] | inhibition at 0.01 µM (MV-4-11; Table I-3, EGFR inhibitors) [%] | inhibition at 0.5 µM (MV-4-11; Table I-3, EGFR inhibitors) [%] | inhibition at 0.01 µM (MV-4-11; Table I-6, IRAK4 inhibitors) [%] | inhibition at 0.5 µM (MV-4-11; Table I-6, IRAK4 inhibitors) [%] | also measured
Cc1ccsc1C(=O)n1nc(Nc2ccc(S(=O)(=O)N3CCN(Cc4cccc5c4CN(C4CCC(=O)NC4=O)C5=S)CC3)cc2)nc1N (centres unmarked) [GT-08797, 3-(4-((4-((4-((5-amino-1-(3-methylthiophene-2-carbonyl)-1H-1,2,4-triazol-3-yl)amino)phenyl)sulfony 1)piperazin-1-yl)methyl)-1-thioxoisoindolin-2-yl)piperidine-2,6-dione] | 40 to 53 | 53 to 60 |  |  |  |  | inhibition at 0.01 µM (MV-4-11; Table I-13, CDK2 inhibitors): 5 to 10%; inhibition at 0.5 µM (MV-4-11; Table I-13, CDK2 inhibitors): 60 to 70%
COc1cc(N2CCC(N(C)Cc3cccc4c3CN(C3CCC(=O)NC3=O)C4=S)CC2)c(C)cc1Nc1ncc(Br)c(Nc2ccc3nccnc3c2P(C)(C)=O)n1 (centres unmarked) [GT-08758, 3-(4-(((1-(4-((5-bromo-4-((5-(dimethylphosphoryl)quinoxalin-6-yl)amino)pyrimidin-2-yl)amino)-5-methoxy-2-methylphenyl)piperidin-4-yl)(methyl)amino)methyl)-1-thioxoisoindolin-2-yl)piperidine-2,6-dione] | 53 to 60 | 60 to 80 | 10 to 20 | 60 to 70 |  |  | 
Cc1cc(-c2nc(C(=O)Nc3cc4oc(N5CCN(Cc6cccc7c6CN(C6CCC(=O)NC6=O)C7=S)CC5)nc4nc3N3CC[C@@H](O)C3)co2)ccn1 (stereo partly drawn) [GT-05289, N-(2-(4-((2-(2,6-dioxopiperidin-3-yl)-1-thioxoisoindolin-4-yl)methyl)piperazin-1-yl)-5-((R)-3-hydroxypyrrolidin-1-yl)oxazolo[4,5-b]pyridin-6-yl)-2-(2-methylpyridin-4-yl)oxazole-4-carboxamide] | 40 to 53 | 60 to 80 |  |  | 5 to 10 | 70 to 80 | 
O=C1CCC(N2Cc3c(CN4CCC(n5cc(NC(=O)c6cnn7ccc(N8CCOCC8)nc67)c(C(F)F)n5)CC4)cccc3C2=S)C(=O)N1 (centres unmarked) [GT-05287, N-(3-(difluoromethyl)-1-(1-((2-(2,6-dioxopiperidin-3-yl)-1-thioxoisoindolin-4-yl)methyl)piperidin-4-yl)-1H-pyrazol-4-yl)-5-morpholinopyrazolo[1,5-a]pyrimidine-3-carboxamide] | 53 to 60 | 80 to 100 |  |  | 10 to 20 | 70 to 80 | 
COc1cc(N2CCC(N(C)Cc3ccc4c(c3)CN(C3CCC(=O)NC3=O)C4=S)CC2)c(C)cc1Nc1ncc(Br)c(Nc2ccc3nccnc3c2P(C)(C)=O)n1 (centres unmarked) [GT-08754, 3-(5-(((1-(4-((5-bromo-4-((5-(dimethylphosphoryl)quinoxalin-6-yl)amino)pyrimidin-2-yl)amino)-5-methoxy-2-methylphenyl)piperidin-4-yl)(methyl)amino)methyl)-1-thioxoisoindolin-2-yl)piperidine-2,6-dione] | 80 to 100 | 80 to 100 | 10 to 20 | 70 to 80 |  |  | 
Cc1cc(-c2nc(C(=O)Nc3cc4oc(N5CCN(Cc6ccc7c(c6)CN(C6CCC(=O)NC6=O)C7=S)CC5)nc4nc3N3CC[C@@H](O)C3)co2)ccn1 (stereo partly drawn) [GT-05322, N-(2-(4-((2-(2,6-dioxopiperidin-3-yl)-1-thioxoisoindolin-5-yl)methyl)piperazin-1-yl)-5-((R)-3-hydroxypyrrolidin-1-yl)oxazolo[4,5-b]pyridin-6-yl)-2-(2-methylpyridin-4-yl)oxazole-4-carboxamide] | 60 to 80 | 80 to 100 |  |  | 10 to 20 | 80 to 100 | 
O=C1CCC(N2Cc3cc(CN4CCN(c5ccc6c(c5)nc(NC(=O)c5cccc(C(F)(F)F)c5)n6[C@H]5CC[C@@H](CO)CC5)CC4)ccc3C2=S)C(=O)N1 (relative stereo) [GT-05293, N-(5-(4-((2-(2,6-dioxopiperidin-3-yl)-1-thioxoisoindolin-5-yl)methyl)piperazin-1-yl)-1-((1s,4s)-4-(hydroxymethyl)cyclohexyl)-1H-benzo[d]imidazol-2-yl)-3-(trifluoromethyl)benzamide] | 40 to 53 | 60 to 80 |  |  | 10 to 20 | 60 to 70 | 
Nc1nnc(-c2ccccc2O)cc1N1CCN(Cc2cccc3c2CN(C2CCC(=O)NC2=O)C3=S)CC1 (centres unmarked) [GT-08786, 3-(4-((4-(3-amino-6-(2-hydroxyphenyl)pyridazin-4-yl)piperazin-1-yl)methyl)-1-thioxoisoindolin-2-yl)piperidine-2,6-dione] | 53 to 60 | 80 to 100 |  |  |  |  | inhibition at 0.01 µM (MV-4-11; [2]): 10 to 15%; inhibition at 0.5 µM (MV-4-11; [2]): 40 to 50%
COc1cc(N2CCC(N3CCN(Cc4ccc5c(c4)CN(C4CCC(=O)NC4=O)C5=S)CC3)CC2)c(C)cc1Nc1ncc(Br)c(Nc2ccc3nccnc3c2P(C)(C)=O)n1 (centres unmarked) [GT-08755, 3-(5-((4-(1-(4-((5-bromo-4-((5-(dimethylphosphoryl)quinoxalin-6-yl)amino)pyrimidin-2-yl)amino)-5-methoxy-2-methylphenyl)piperidin-4-yl)piperazin-1-yl)methyl)-1-thioxoisoindolin-2-yl)piperidine-2,6-dione] | 80 to 100 | 80 to 100 | 20 to 30 | 70 to 80 |  |  | 
O=C1CCC(N2Cc3c(CN4CCC(n5cc(NC(=O)c6cnn7ccc(N8C[C@H]9C[C@@H]8CO9)nc67)c(C(F)F)n5)CC4)cccc3C2=S)C(=O)N1 (stereo partly drawn) [GT-05288, 5-((1R,4R)-2-oxa-5-azabicyclo[2.2.1]heptan-5-yl)-N-(3-(difluoromethyl)-1-(1-((2-(2,6-dioxopiperidin-3-yl)-1-thioxoisoindolin-4-yl)methyl)piperidin-4-yl)-1H-pyrazol-4-yl)pyrazolo[1,5-a]pyrimidine-3-carboxamide] | 53 to 60 | 80 to 100 |  |  | 0 to 5 | 40 to 50 | 
COC1CCN(c2nccc(Nc3cc4c(cn3)c(N3CCN(Cc5ccc6c(c5)CN(C5CCC(=O)NC5=O)C6=S)CC3)nn4C(C)C)n2)CC1 (centres unmarked) [GT-08756, 3-(5-((4-(1-isopropyl-6-((2-(4-methoxypiperidin-1-yl)pyrimidin-4-yl)amino)-1H-pyrazolo[4,3-c]pyridin-3-yl)piperazin-1-yl)methyl)-1-thioxoisoindolin-2-yl)piperidine-2,6-dione] | 30 to 40 | 80 to 100 | 5 to 10 | 40 to 50 |  |  | 
Cn1ncc(-c2nc(NC3CCN(Cc4ccc5c(c4)C(=S)N(C4CCC(=O)NC4=O)C5)CC3)ncc2Cl)c1CC1CC1 (centres unmarked) [GT-08751, 3-(6-((4-((5-chloro-4-(5-(cyclopropylmethyl)-1-methyl-1H-pyrazol-4-yl)pyrimidin-2-yl)amino)piperidin-1-yl)methyl)-1-thioxoisoindolin-2-yl)piperidine-2,6-dione] | 40 to 53 | 80 to 100 |  |  |  |  | inhibition at 0.01 µM (MV-4-11; Table I-7, CDK9 inhibitors): 10 to 20%; inhibition at 0.5 µM (MV-4-11; Table I-7, CDK9 inhibitors): 60 to 70%
Cc1cc(S(=O)(=O)N2CCN(Cc3cccc4c3CN(C3CCC(=O)NC3=O)C4=S)CC2)ccc1Nc1ncc(Br)c(Nc2cccc(F)c2C(N)=O)n1 (centres unmarked) [GT-08793, 2-((5-bromo-2-((4-((4-((2-(2,6-dioxopiperidin-3-yl)-1-thioxoisoindolin-4-yl)methyl)piperazin-1-yl)sulfonyl)-2-methylphenyl)amino)pyrimidin-4-yl)amino)-6-fluorobenzamide] |  |  |  |  |  |  | inhibition at 0.01 µM (MV-4-11; Table I-13, CDK2 inhibitors): 30 to 40%; inhibition at 0.5 µM (MV-4-11; Table I-13, CDK2 inhibitors): 60 to 70%
